Some test systems named below: 786-0; ACHN; EKVX; HCC 2998; HCT-15; K562; MCF7; MOLT-4; Malme-3M; NCI-H23; PC-3; SK-MEL-28; SK-MEL-2; SN12C; SNB-75; TK-10; U-251; HOP-62; SR.
Common to all, as to experiment: growth of human tumour cells (NCI), 48 h

The results in this text go back to ChEMBL document CHEMBL1201862, “PubChem BioAssay data set” (2004).

Each structure is given as a SMILES string.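 Five compound concentrations were applied to cells in 96-well plates for 48 hours; endpoints were derived by simple linear interpolation of the resulting dose-response curve. GI50: concentration for 50% inhibition of growth.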 The source made the active and inactive calls. Rule as the data show it: active = GI50 up to about 1.1 µM and inactive = higher.

Turning to `CC(=O)O[C@@H]1[C@H]2O[C@H]2[C@H]2O[C@@]2(COC(=O)c2ccccc2)[C@H]1OC(C)=O`, the GI50 in the test with 786-0 was > 100 µM (inactive); in the test with ACHN, 16.9 µM (inactive); in the test on EKVX, > 100 µM (inactive); in the test on HCC 2998, > 100 µM (inactive); in the test with HCT-15, more than 100 µM; in the test on K562, > 100 µM (inactive). Moreover, the GI50 with MCF7 was > 100 µM (inactive); with MOLT-4 it was 32.1 µM (inactive); in the test with Malme-3M, > 100 µM (inactive); in the test with NCI-H23, > 100 µM (inactive); in the test on PC-3, > 100 µM (inactive); with SK-MEL-28 it was > 100 µM (inactive). For the same compound, the GI50 with SK-MEL-2, in the test with SN12C, in the test with SNB-75, with TK-10 and in the test on U-251 was > 100 µM (inactive) in each case.
Consider `O=C(Nc1c(O)[nH]c(=S)[nH]c1=O)c1ccccc1`, for which the GI50 with 786-0 was > 100 µM (inactive); with ACHN it was > 100 µM (inactive); with HCT-15 it was more than 100 µM; in the test on HOP-62, > 100 µM (inactive); in the test with K562, > 100 µM (inactive); in the test on MOLT-4, > 100 µM (inactive). Moreover, the GI50 in the test with Malme-3M, in the test with NCI-H23, in the test with SK-MEL-28, in the test with SK-MEL-2, with SN12C and in the test on SNB-75 was > 100 µM (inactive) in each case. Besides, the GI50 in the test on SR, with TK-10 and in the test with U-251 was > 100 µM (inactive) in each case.
Turning to `COc1ccc(-c2onc(-c3ccc([N+](=O)[O-])cc3)c2C2=NCCN2)cc1`, the GI50 in the test with 786-0 is 17 µM (inactive); in the test with ACHN it was 38.1 µM (inactive); with EKVX, > 100 µM (inactive); with HCC 2998 it was > 100 µM (inactive); with HCT-15 it was more than 100 µM; in the test on HOP-62, > 100 µM (inactive). Besides, the GI50 with K562, in the test with MOLT-4, in the test on Malme-3M, in the test with NCI-H23, with SK-MEL-28 and with SK-MEL-2 was > 100 µM (inactive) in each case. Moreover, the GI50 in the test on SN12C was 67.5 µM (inactive); in the test with SNB-75, 20.9 µM (inactive); in the test on SR it was > 100 µM (inactive); in the test with U-251 it was 67.6 µM (inactive).
Take `COc1c2c(cc3c1C(=O)Cc1ccc4c(c1CN(C)CC3)OCO4)OCO2`: the GI50 with 786-0 was > 100 µM (inactive); in the test with ACHN it was > 100 µM (inactive); in the test with EKVX, > 100 µM (inactive); in the test on HCC 2998, > 100 µM (inactive); in the test with HCT-15, more than 100 µM; in the test on HOP-62, > 100 µM (inactive). The GI50 with K562 was 28.8 µM (inactive); in the test on MOLT-4 it was 36.7 µM (inactive); in the test with Malme-3M, > 100 µM (inactive); in the test on NCI-H23, > 100 µM (inactive); with SK-MEL-28, > 100 µM (inactive); in the test on SK-MEL-2 it was > 100 µM (inactive). The GI50 in the test on SN12C was > 100 µM (inactive); with SNB-75, 26.4 µM (inactive); with SR, 43.2 µM (inactive); in the test on TK-10, > 100 µM (inactive); with U-251, 86.9 µM (inactive).
Consider `Cc1ccc(C(=O)N/N=C(\N=N\c2ccccc2C(=O)O)c2ccc(N(C)C)cc2)cc1`, for which the GI50 in the test on 786-0 is > 100 µM (inactive); in the test with EKVX, 75.2 µM (inactive); in the test with HCC 2998 it was 71.4 µM (inactive); in the test on HCT-15 it was 64.7 µM; with K562, 35.8 µM (inactive); in the test with MCF7, > 100 µM (inactive). In addition, the GI50 with MOLT-4 is 71.4 µM (inactive); in the test on NCI-H23 it was > 100 µM (inactive); in the test with PC-3, > 100 µM (inactive); with SK-MEL-28 it was > 100 µM (inactive); in the test with SK-MEL-2, > 100 µM (inactive); in the test on SN12C, > 100 µM (inactive). The GI50 in the test on TK-10 and in the test with U-251 was > 100 µM (inactive) in each case.
For `COc1ccccc1/N=C1\SCCN1C(=S)Nc1ccc(S(=O)(=O)/N=C/N(C)C)cc1`, the GI50 in the test on 786-0 is 44.2 µM (inactive); with ACHN it was 32.4 µM (inactive); in the test with EKVX it was 20.9 µM (inactive); in the test with HCC 2998 it was > 100 µM (inactive); in the test on HCT-15, 31.6 µM; in the test with HOP-62 it was > 100 µM (inactive). The GI50 in the test on K562 was 39.6 µM (inactive); in the test with MCF7 it was 26.1 µM (inactive); with MOLT-4, 22.6 µM (inactive); in the test with NCI-H23 it was 27.1 µM (inactive); in the test on PC-3, > 100 µM (inactive); in the test with SK-MEL-28 it was 30.1 µM (inactive). For the same compound, the GI50 was 50.9 µM (inactive) in the test on SN12C, 29.6 µM (inactive) in the test with SNB-75, 36 µM (inactive) with TK-10 and > 100 µM (inactive) in the test on U-251.
Turning to `Fc1cc(-c2cc(-c3ccccc3)n[nH]2)c(Cl)cc1Cl`, the GI50 in the test with 786-0 is > 100 µM (inactive); in the test with ACHN, 6.35 µM (inactive); in the test on EKVX, 61.7 µM (inactive); in the test with HCT-15 it was more than 100 µM; in the test on HOP-62, 64.4 µM (inactive); with K562 it was 0.492 µM (active). Further, the GI50 with MOLT-4 is 16.9 µM (inactive); with Malme-3M, > 100 µM (inactive); in the test on NCI-H23, > 100 µM (inactive); in the test on PC-3, > 100 µM (inactive); in the test with SK-MEL-28, > 100 µM (inactive); with SK-MEL-2, > 100 µM (inactive). Further, the GI50 with SN12C was > 100 µM (inactive); in the test with SNB-75, > 100 µM (inactive); with SR it was > 100 µM (inactive); with TK-10, > 100 µM (inactive); in the test with U-251, 51.5 µM (inactive).
Regarding `CCC(c1ccc(OC)cc1)C1NC(=S)NC1=O` (stereo unspecified), the GI50 was > 50 µM (inactive) with 786-0; > 50 µM (inactive) with ACHN; 34.2 µM (inactive) with EKVX; > 50 µM (inactive) in the test with HCC 2998; more than 50 µM in the test with HCT-15; > 50 µM (inactive) in the test on HOP-62. Further, the GI50 was 17.5 µM (inactive) with K562; > 50 µM (inactive) in the test with MCF7; 35.5 µM (inactive) with MOLT-4; > 50 µM (inactive) in the test on Malme-3M; > 50 µM (inactive) in the test on NCI-H23; > 50 µM (inactive) in the test on PC-3. The GI50 in the test with SK-MEL-28, in the test with SK-MEL-2, with SN12C, with SNB-75, with TK-10 and in the test with U-251 was > 50 µM (inactive) in each case.
Turning to `NC1=C(N2CCOCC2)C(=O)NC2=N/C(=C\c3ccccc3)C(=O)N21`, the GI50 is > 100 µM (inactive) with 786-0; > 100 µM (inactive) in the test on ACHN; > 100 µM (inactive) with EKVX; > 100 µM (inactive) in the test on HCC 2998; 84.3 µM in the test with HCT-15; 26.1 µM (inactive) in the test with K562. For the same compound, the GI50 in the test on MCF7 was > 100 µM (inactive); with MOLT-4 it was 35.8 µM (inactive); in the test with Malme-3M, > 100 µM (inactive); in the test with NCI-H23 it was > 100 µM (inactive); in the test with SK-MEL-28, > 100 µM (inactive); in the test with SN12C, > 100 µM (inactive). Also, the GI50 is > 100 µM (inactive) in the test with SNB-75, 49.2 µM (inactive) with SR, > 100 µM (inactive) in the test with TK-10 and > 100 µM (inactive) in the test with U-251.
As for `Cc1cc2c(=O)c3ccc(Cl)cc3[nH]c2c(C(=O)O)c1C`, the GI50 with 786-0 is > 100 µM (inactive); in the test on ACHN it was > 100 µM (inactive); with EKVX it was > 100 µM (inactive); in the test with HCC 2998, > 100 µM (inactive); in the test on HCT-15, more than 100 µM; in the test on HOP-62, > 100 µM (inactive). Besides, the GI50 with K562, in the test with MOLT-4, with Malme-3M, in the test on NCI-H23, in the test with SK-MEL-28 and in the test on SK-MEL-2 was > 100 µM (inactive) in each case. The GI50 with SN12C, with SNB-75, in the test on TK-10 and in the test on U-251 was > 100 µM (inactive) in each case.
In the case of `O=C(c1cccs1)N(C(=O)N1CCC(c2ccccc2)CC1)c1ccccc1`, the GI50 in the test on 786-0 is > 100 µM (inactive); with ACHN, 63.1 µM (inactive); in the test on EKVX, 7.67 µM (inactive); in the test with HCT-15 it was 28.1 µM; in the test on HOP-62, 36 µM (inactive); in the test on K562, 22.7 µM (inactive). The GI50 in the test with MCF7 is 35.5 µM (inactive); with MOLT-4 it was 34.8 µM (inactive); in the test on Malme-3M, 15.8 µM (inactive); with NCI-H23, 40.6 µM (inactive); in the test with PC-3, 0.873 µM (active); in the test with SK-MEL-28, 43.9 µM (inactive). Further, the GI50 is 13.8 µM (inactive) with SK-MEL-2, 62.2 µM (inactive) in the test on SN12C, 67 µM (inactive) in the test with TK-10 and 46 µM (inactive) in the test on U-251.
On to `Cc1oc2c(c1C)S(=O)(=O)C(C#N)=C(N(C)C)N2`, for which the GI50 is > 100 µM (inactive) with 786-0; > 100 µM (inactive) with ACHN; > 100 µM (inactive) in the test on EKVX; > 100 µM (inactive) in the test on HCC 2998; more than 100 µM in the test with HCT-15; > 100 µM (inactive) in the test on HOP-62. Moreover, the GI50 with K562, in the test on MCF7, in the test with MOLT-4, in the test on Malme-3M, in the test with NCI-H23 and in the test on PC-3 was > 100 µM (inactive) in each case. Also, the GI50 in the test with SK-MEL-28, in the test on SK-MEL-2, in the test on SN12C, with SNB-75, in the test on TK-10 and in the test with U-251 was > 100 µM (inactive) throughout.
